One assay has as its target T1, CDK12/CycK (Homo sapiens, UniProt Q9NYV4).
T1 construct: His-CDK12 (aa Q696-S1082); made in house; host or cells: Hi-5 insect cells (baculovirus co-infection with CAK1)
The experiment in a line: CDK12/CycK high ATP kinase assay (TR-FRET, 2 mM ATP). Particulars: read-out: CDK12/CyclinK, 2 mM ATP (high ATP), IC50-[mol/l] (median). The format is biochemical. The source says:
In the context of the present invention, the term “IC50 CDK12 hATP” refers to the IC50 values obtained according to the assay described in this section (2.2) herein below, i.e. the IC50 values for the inhibition of CDK12 at high ATP.
CDK12/CycK-inhibitory activity of compounds of the present invention at 2 millimol/L adenosine-tri-phosphate (ATP) was quantified employing the TR-FRET (TR-FRET=Time Resolved Fluorescence Energy Transfer) based CDK12/CycK activity inhibition assay as described in the following paragraphs.
A complex of human recombinant CDK12 and human recombinant CycK (both N-terminally His-tagged, expression and purification as described above) was used as enzyme. As substrate for the kinase reaction biotinylated peptide biotin-Ahx-KFELLPTPPLSPSRRSGL (C-terminus in amid form) was used which can be purchased e.g. form the company Biosyntan (Berlin-Buch, Germany).
For the assay 50 nanoL of a 100 fold concentrated solution of the test compound in DMSO was pipetted into either a black low volume 384 well microtiter plate or a black 1536 well microtiter plate (both Greiner Bio-One, Frickenhausen, Germany), 2 microL of a solution of CDK12/CycK in aqueous assay buffer [25 millimol/L HEPES pH 7.5, 20 millimol/L MgCl2, 5 millimol/L ß-glycerophosphate, 2 millimol/L EGTA, 1.0 millimol/L dithiothreitol, 0.01% (v/v) Nonidet-P40 (Sigma), 0.01% (w/v) bovine serum albumin] were added and the mixture was incubated for 15 min at 22° C. to allow pre-binding of the test compounds to the enzyme before the start of the kinase reaction. Then the kinase reaction was started by the addition of 3 microL of a solution ATP (3.33 millimol/L=> final conc. in the 5 microL assay volume is 2 millimol/L) and substrate (1.67 micromol/L=> final conc. in the 5 microL assay volume is 1 micromol/L) in assay buffer and the resulting mixture was incubated for a reaction time of 60 min at 22° C. The concentration of CDK12/CycK was adjusted depending of the activity of the enzyme lot and was chosen appropriate to have the assay in the linear range, typical concentrations were about 0.75 nanomol/L. The reaction was stopped by the addition of 3 microL of a solution of TR-FRET detection reagents (125 nanomol/L streptavidine-XL665 [Cisbio Bioassays, Codolet, France] and 0.67 nanomol/L anti-Phospho-c-Myc (Ser 62) (E1J4K)-antibody from Cell Signalling [#13748] and 2 nanomol/L LANCE EU-W1024 labeled anti-rabbit IgG antibody [Perkin-Elmer, product no. 0083]) in an aqueous EDTA-solution (133 millimol/L EDTA, 0.27% (w/v) bovine serum albumin in 66.7 millimol/L HEPES pH 7.5).
(§1) The resulting mixture was incubated 1 h at 22° C. to allow the formation of complex between the phosphorylated biotinylated peptide and the detection reagents. Subsequently the amount of phosphorylated substrate was evaluated by measurement of the resonance energy transfer from the Eu-chelate to the streptavidine-XL. Therefore, the fluorescence emissions at 620 nm and 665 nm after excitation at 350 nm was measured in a TR-FRET reader, e.g. a Pherastar FS (BMG Labtechnologies, Offenburg, Germany) or a Viewlux (Perkin-Elmer). The ratio of the emissions at 665 nm and at […] was taken as the measure for the amount of phosphorylated substrate. The data were normalised (enzyme reaction without inhibitor=0% inhibition, all other assay components but no enzyme=100% inhibition).
In general terms: Time-resolved FRET reads energy transfer from a long-lived donor to a nearby acceptor.

For another assay, the target named is T2, CDK2/CycE (Homo sapiens, UniProt P24941).
T2 construct: purchased ProQinase GmbH (Freiburg, Germany); host or cells: insect cells (Sf9)
Nature of the assay: CDK2/CycE kinase assay (TR-FRET, 2 mM ATP). The format is biochemical. Particulars: read-out: CDK2/CyclinE, 2 mM ATP (high ATP) IC50-[mol/l] (median).
Description: CDK2/CycE-inhibitory activity of compounds of the present invention was quantified employing the CDK2/CycE TR-FRET assay as described in the following paragraphs.
Recombinant fusion proteins of GST and human CDK2 and of GST and human CycE, expressed in insect cells (Sf9) and purified by Glutathion-Sepharose affinity chromatography, were purchase from ProQinase GmbH (Freiburg, Germany). As substrate for the kinase reaction biotinylated peptide biotin-Ttds-YISPLKSPYKISEG (C-terminus in amid form) was used which can be purchased e.g. form the company JERINI peptide technologies (Berlin, Germany).
For the assay 50 nanoL of a 100 fold concentrated solution of the test compound in DMSO was pipetted into a black low volume 384 well microtiter plate or a black 1536 well microtiter plate (both Greiner Bio-One, Frickenhausen, Germany), 2 microL of a solution of CDK2/CycE in aqueous assay buffer [50 millimol/L Tris/HCl pH 8.0, 10 millimol/L MgCl2, 1.0 millimol/L dithiothreitol, 0.1 millimol/L sodium ortho-vanadate, 0.01% (v/v) Nonidet-P40 (Sigma)] were added and the mixture was incubated for 15 min at 22° C. to allow pre-binding of the test compounds to the enzyme before the start of the kinase reaction. Then the kinase reaction was started by the addition of 3 microL of a solution of adenosine-tri-phosphate (ATP, 3.33 millimol/L=> final conc. in the 5 microL assay volume is 2 millimol/L) and substrate (1.25 micromol/L=> final conc. in the 5 microL assay volume is 0.75 micromol/L) in assay buffer and the resulting mixture was incubated for a reaction time of 25 min at 22° C. The concentration of CDK2/CycE was adjusted depending of the activity of the enzyme lot and was chosen appropriate to have the assay in the linear range, typical concentrations were in the range of 10 ng/ml. The reaction was stopped by the addition of 3 microL of a solution of TR-FRET detection reagents (0.333 micromol/L streptavidine-XL665 [Cisbio Bioassays, Codolet, France] and 1.67 nanomol/L anti-RB(pSer807/pSer8l 1)-antibody from BD Pharmingen [#558389] and 2 nanomol/L LANCE EU-W1024 labeled anti-mouse IgG antibody [Perkin-Elmer, product no. AD0077, as an alternative a Terbium-cryptate-labeled anti-mouse IgG antibody from Cisbio Bioassays can be used]) in an aqueous EDTA-solution (167 millimol/L EDTA, 0.2% (w/v) bovine serum albumin in 100 millimol/L HEPES pH 7.5).
as §1, with “Pherastar” for “Pherastar FS”

SMILES strings stand for the structures.

T1 sequence (Q9NYV4 with tags, fused parts or gaps): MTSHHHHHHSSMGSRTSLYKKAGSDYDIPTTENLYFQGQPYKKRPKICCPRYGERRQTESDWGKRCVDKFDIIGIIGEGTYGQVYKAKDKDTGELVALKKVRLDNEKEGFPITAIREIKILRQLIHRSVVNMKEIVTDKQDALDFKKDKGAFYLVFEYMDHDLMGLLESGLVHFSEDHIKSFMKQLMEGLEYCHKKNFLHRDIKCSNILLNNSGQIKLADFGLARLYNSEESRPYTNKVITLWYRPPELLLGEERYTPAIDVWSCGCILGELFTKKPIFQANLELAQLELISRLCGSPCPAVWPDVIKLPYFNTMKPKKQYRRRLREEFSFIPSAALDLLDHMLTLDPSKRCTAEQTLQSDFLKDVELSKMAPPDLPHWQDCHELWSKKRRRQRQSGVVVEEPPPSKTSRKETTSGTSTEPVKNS
T1 sequence (O75909 with tags, fused parts or gaps partner limits assumed): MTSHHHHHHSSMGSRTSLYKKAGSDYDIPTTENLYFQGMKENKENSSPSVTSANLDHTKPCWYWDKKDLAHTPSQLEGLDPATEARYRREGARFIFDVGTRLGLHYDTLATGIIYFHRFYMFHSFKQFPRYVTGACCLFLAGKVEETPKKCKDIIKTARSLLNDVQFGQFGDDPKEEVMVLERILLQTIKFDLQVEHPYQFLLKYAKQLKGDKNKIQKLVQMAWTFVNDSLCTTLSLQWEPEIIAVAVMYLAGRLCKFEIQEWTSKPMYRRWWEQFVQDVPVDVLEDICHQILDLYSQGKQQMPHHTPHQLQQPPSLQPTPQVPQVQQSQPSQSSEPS

`Brc1cnc2c(NCc3nc4ccccc4[nH]3)nc(N3CCOCC3)nn12` [Example 1, N-[(1H-benzimidazol-2-yl)methyl]-7-bromo-2-(morpholin-4-yl)imidazo[2,1-f][1,2,4]triazin-4-amine]: the IC50 worked out at 5110 nM on CDK12/CycK and 11.7 µM on CDK2/CycE.

With `N#Cc1cnc2c(NCc3nc4ccccc4[nH]3)nc(N3CCOCC3)nn12` [Example 2, 4-{[(1H-benzimidazol-2-yl)methyl]amino}-2-(morpholin-4-yl)imidazo[2,1-f][1,2,4]triazine-7-carbonitrile], the results for the IC50 on CDK12/CycK and on CDK2/CycE were 6980 nM and > 20 µM, respectively.

For the molecule `Fc1cccc(-c2cnc3c(NCc4nc5ccccc5[nH]4)nc(N4CCOCC4)nn23)c1` [Example 3, N-[(1H-benzimidazol-2-yl)methyl]-7-(3-fluorophenyl)-2-(morpholin-4-yl)imidazo[2,1-f][1,2,4]triazin-4-amine], the values for the IC50 on CDK12/CycK and on CDK2/CycE were > 20000 nM and > 20 µM, respectively.

As to `C[C@@H]1CN(c2nc(NCc3nc4ccccc4[nH]3)c3ncc(Br)n3n2)C[C@H](C)O1` [Example 4, N-[(1H-benzimidazol-2-yl)methyl]-7-bromo-2-[rel-(2R,6S)-2,6-dimethylmorpholin-4-yl]imidazo[2,1-f][1,2,4]triazin-4-amine], the figures for the IC50 on CDK12/CycK and at CDK2/CycE were 990 nM and > 20 µM, respectively.

As for `C[C@@H]1CN(c2nc(NCc3nc4c(F)c(F)ccc4[nH]3)c3ncc(Br)n3n2)C[C@H](C)O1` [Example 5, 7-bromo-N-[(4,5-difluoro-1H-benzimidazol-2-yl)methyl]-2-[rel-(2R,6S)-2,6-dimethylmorpholin-4-yl]imidazo[2,1-f][1,2,4]triazin-4-amine], the IC50 at CDK12/CycK was 137 nM; on CDK2/CycE it was > 20 µM.

Regarding `CN1CCN(c2nc(NCc3nc4ccccc4[nH]3)c3ncc(Br)n3n2)CC1` [Example 6, N-[(1H-benzimidazol-2-yl)methyl]-7-bromo-2-(4-methylpiperazin-1-yl)imidazo[2,1-f][1,2,4]triazin-4-amine], the IC50 is > 18600 nM on CDK12/CycK and > 20 µM on CDK2/CycE.

For `Fc1ccc2[nH]c(CNc3nc(N4CCOCC4)nn4c(Br)cnc34)nc2c1F` [Example 7, 7-bromo-N-[(4,5-difluoro-1H-benzimidazol-2-yl)methyl]-2-(morpholin-4-yl)imidazo[2,1-f][1,2,4]triazin-4-amine], the IC50 was 1260 nM on CDK12/CycK and > 20 µM on CDK2/CycE.

On to `Brc1cnc2c(NCc3nc4ccccc4[nH]3)nc(N3CCNCC3)nn12` [Example 8, N-[(1H-benzimidazol-2-yl)methyl]-7-bromo-2-(piperazin-1-yl)imidazo[2,1-f][1,2,4]triazin-4-amine], for which the IC50 was 5650 nM at CDK12/CycK and > 20 µM on CDK2/CycE.

Consider `C[C@@H]1CN(c2nc(NCc3nc4ccccc4[nH]3)c3ncc(Br)n3n2)C[C@H](C)N1` [Example 9, N-[(1H-benzimidazol-2-yl)methyl]-7-bromo-2-[rel-(3R,5S)-3,5-dimethylpiperazin-1-yl]imidazo[2,1-f][1,2,4]triazin-4-amine], for which the IC50 at CDK12/CycK is 4900 nM; on CDK2/CycE, > 20 µM.

In the case of `Fc1ccc2[nH]c(CNc3nc(N4CCNCC4)nn4c(Br)cnc34)nc2c1F` [Example 10, 7-bromo-N-[(4,5-difluoro-1H-benzimidazol-2-yl)methyl]-2-(piperazin-1-yl)imidazo[2,1-f][1,2,4]triazin-4-amine], the IC50 at CDK12/CycK is 1370 nM; at CDK2/CycE it was > 20 µM.

`C[C@@H]1CN(c2nc(NCc3nc4c(F)c(F)ccc4[nH]3)c3ncc(Br)n3n2)C[C@H](C)N1` [Example 11, 7-bromo-N-[(4,5-difluoro-1H-benzimidazol-2-yl)methyl]-2-[rel-(3R,5S)-3,5-dimethylpiperazin-1-yl]imidazo[2,1-f][1,2,4]triazin-4-amine]: the IC50 was 579 nM at CDK12/CycK and > 20 µM at CDK2/CycE.

For `Fc1cccc2[nH]c(CNc3nc(N4CCOCC4)nn4c(Br)cnc34)nc12` [Example 12, 7-bromo-N-[(4-fluoro-1H-benzimidazol-2-yl)methyl]-2-(morpholin-4-yl)imidazo[2,1-f][1,2,4]triazin-4-amine], the figures for the IC50 at CDK12/CycK and at CDK2/CycE were 4710 nM and > 20 µM, respectively.

For `COc1cccc2[nH]c(CNc3nc(N4CCOCC4)nn4c(Br)cnc34)nc12` [Example 13, 7-bromo-N-[(4-methoxy-1H-benzimidazol-2-yl)methyl]-2-(morpholin-4-yl)imidazo[2,1-f][1,2,4]triazin-4-amine], the IC50 on CDK12/CycK was 1330 nM; on CDK2/CycE it was 5.74 µM.

Turning to `COc1cccc2[nH]c(CNc3nc(N4C[C@@H](C)N[C@@H](C)C4)nn4c(Br)cnc34)nc12` [Example 14, 7-bromo-2-[rel-(3R,5S)-3,5-dimethylpiperazin-1-yl]-N-[(4-methoxy-1H-benzimidazol-2-yl)methyl]imidazo[2,1-f][1,2,4]triazin-4-amine], the IC50 at CDK12/CycK was 2010 nM; at CDK2/CycE, > 20 µM.

With `Fc1cccc2[nH]c(CNc3nc(N4CCNCC4)nn4c(Br)cnc34)nc12` [Example 22, 7-bromo-N-[(4-fluoro-1H-benzimidazol-2-yl)methyl]-2-(piperazin-1-yl)imidazo[2,1-f][1,2,4]triazin-4-amine], the IC50 at CDK12/CycK turned out to be 2560 nM.
